“Also recorded” adds a separate entry of the source.

In data set [1] the test system is SURE CHO-M cell line. The data set can be described thus: Cell cycle analysis of CHO cells by propidium iodide DNA content flow cytometry. In kind it is cell-based, Chinese hamster. The following applies: overnight in medium; DMSO 1%, APH 1 μM, MTX 1 uM, NOCO 1.5 μM. As to the method: SURE CHO-M cell™ line (SELEXIS SA, Switzerland, see: U.S. Pat. Nos. 7,129,062, 8,252,917 and 9,879,297, and U.S. Patent Applications No. 20110061117 and 20120231449, the disclosures of which are incorporated herein by reference in their entirety) were cultivated overnight in asynchronous condition (FIG. 1A) or in presence of DMSO 1%, aphidicholin (APH) 1 μM, methotrexate (MTX) 1 uM or nocodazole (NOCO) 1.5 μM (FIG. 1B). Cells were then fixed in ethanol and labelled overnight at 4° C. with propidium iodide (PI; 50 μg/ml, Sigma) in presence of RNAse (0.5 μg/ml, Sigma). DNA content index histograms were acquired on Guava EasyCyte System® using INCYTE acquisition software. Each phase of cell cycle was defined according to the drug treatment as G1 arrest (DMSO); S phase (APH); G2 (NOCO). The % of G0/G1, % of S and % of G2/M arrested cells were then calculated (see Table FIG. 1B).
Cell cycle was analyzed by flow cytometry at release (18 h with drug) and at 1, 2, 4, 6 and 8 h after release. Released cells were then further cultivated according to the indicated time points. Asynchronous (control) cells were included as controls. DNA content index histograms were acquired on Guava EasyCyte System® (MILLIPORE) using INCYTE acquisition software.

Data set [2] deals with SURE CHO-M cells. The data set can be described thus: Cell synchronization combined with DNA repair pathway modulators: CSA of trastuzumab IgG-producing cells. In kind it is cell-based, Chinese hamster. The settings on record: for proportion of high-expressing cells: immediately after transfection, in combination with S and G2 arrest. As for the experimental part: Freshly transfected cells were incubated in presence of various NHEJ, HR, MMEJ or SSA modulators immediately after electroporation to identify the DNA repair pathway involved in transgene integration and depending on the targeted cell cycle phase.

The test system of data set [3] is SURE CHO-M cells. The data set can be described thus: Cell synchronization with plasmid or CRISPR/Cas-mediated transgene integration: fed-batch PCD. The following applies: G1 synchronization, DMSO 1% overnight, plasmid-based and CRISPR/Cas9-mediated expression system. Also on record: species or system Chinese hamster. As to the method:
Asynchronous and synchronized cells were transfected with IgG-trastuzumab expressing vectors and cultivated under antibiotic selection for 10 days.
Stable expressing pools were subcultivated in complete culture medium for 4 subsequent passages in spin tubes (5 ml wv) (FIG. 4B). Cell density (Cv·ml^−1) and IgG titer values (μg·ml^−1) were determined. […] Growth and performance of each stable established IgG-expressing pool was then evaluated in spin tube in a 9-day fedbatch process using Acto CHO A+B feed (GE Healthcare). Fed-batch cultures were initiated at cell concentrations of 0.3×10^6 cells/ml in 5 mL working volume run. (FIG. 4C). The specific IgG productivity was determined as the slope of IgG concentration versus the integral number of viable cells (IVCD) and expressed as pg per cell and per day (pcd). Histograms represented the fold change of productivity per cell per day (PCD) obtained for DMSO and 4° C. pre-treatment compared to their respective untreated-controls cells.

Data set [4] has as its system SURE CHO-M cells. In words: Cell recovery during antibiotic selection after synchronization and DNA repair modulation. The following applies: S- and G2-synchronized cells, with DNA repair pathways inhibition.
Protocol: SURE CHO-M cells™ (SELEXIS SA, Switzerland) were synchronized overnight with DMSO 1%, aphidicolin (APH) 1 μM, methotrexate (MTX) 1 μM or nocodazole (NOCO) 1.5 μM. After 18 hrs of incubation, cells were centrifuged, rinse twice into PBS 1× and resuspended in complete culture medium. Asynchronous and synchronized cells were transfected with trastuzumab IgG-plasmid expressing vector. Freshly transfected cells were then immediately resuspended and incubated overnight in presence of NU7441, RI-1, RS-1 or Olaparib small molecules (drugs provided by TOCRIS, CALBIOCHEM or APEXBIO TECHNOLOGY) before to change medium and start antibiotic selection.
Cell recovery behavior during antibiotic selection was monitored for each transfection condition and recorded as + or − signs.
Data set [5] deals with SURE CHO-M cell line. In words: eGFP expression after transfection of synchronized CHO cells (cytometer imager). The following applies: day 2 and day 11 after transfection; synchronized prior to transfection vs non-synchronized cells. It is filed as cell-based, Chinese hamster. As to the method: (§1) Asynchronous and synchronized SURE CHO-M cell™ lines (SELEXIS SA, Switzerland) were transfected with eGFP- (FIG. 1E) or Trastuzumab IgG-expression SLX-vectors (FIG. 1F and FIG. 1G) immediately after drugs release. Transfection was done by microporation (NEON TRANSFECTION SYSTEM, INVITROGEN), generating a heterogeneous pool of transfected cells. 24 h after transfection, 5 ug/ml puromycin selection agent (GIBCO) was added to the BalanCD medium (IRVINE) supplemented with 6 mM L-Glutamine (HYCLONE). Expression pools performances were then evaluated for GFP or IgG at different time points after transfection. The percentage and GFP fluorescence mean intensity (FMI) level were evaluated on cytometer imager at d2 and d11 post-transfection (CELIGO S; NEXCELOM). Results were represented as fold change of control cells (FIG. 1E; histograms).

The subject of data set [6] is SURE CHO-M cell line. In words: Cell Secretion Assay (CSA) of Trastuzumab IgG-producing cells after synchronization. It is filed as cell-based, Chinese hamster. The settings on record: 2 days post-transfection; vs asynchronized cells. As for the experimental part:
as §1
The percentage and secretion mean intensity (SMI) of IgG-producing cells were determined at d2 (FIG. 1F) and d10 (FIG. 1G) post-transfection using Cell Secretion Assay methods (CSA).

Data set [7] relates to SURE CHO-M cells. In words: Nu7441 treatment before transfection: productivity in 9-day fedbatch (ELISA titer, PCD). In kind it is cell-based, Chinese hamster. The settings on record: 0.4 μM just before transfection. As for the experimental part: SURE CHO-M cells™ (SELEXIS SA, Switzerland) were treated with 0.4 μM of DNA-PK inhibitor Nu7441 (TOCRIS) just before transfection of 3 μg of the antibody DNA fragment, respectively Trastuzumab (Tras) or Adalimumab (ADA). Transfection was done by microporation (Neon Transfection system, Invitrogen). 24 h after transfection, 5 μg/ml puromycin selection agent (Gibco) was added.
Growth and performance of the 6 top clones of each enzymatic condition were evaluated in spin tube in a 9-day fedbatch process using Acto CHO A+B feed (GE Healthcare). Fed-batch cultures were initiated at cell concentrations of 0.3×10^6 cells/ml in 5 mL working volume run. Cell density and cell viability along the process were evaluated by using a Guava System (Millipore) and supernatant sample was collected. Antibody product titer was evaluated by ELISA capture assay against the collected supernatant, at day 9 of the fedbatch process. Productivity per cell per day (PCD) was calculated as function of titer and viable cell density during the fedbatch process.

The subject of data set [8] is SURE CHO-M cells. In words: IgG transfection in presence of Sbf1 restriction enzyme and NU7441: CSA of stable cells. It is filed as cell-based, Chinese hamster. The following applies: Sbf1 present. As for the experimental part:
Asynchronized (AS) or G1-synchronized (G1) SURE CHO-M cells' (SELEXIS SA, Switzerland) were transfected with trastuzumab IgG-expressing vector in presence of Sbf1 restriction enzyme. Transfected cells were incubated overnight in presence of the NHEJ inhibitor—NU7441 ([…])—before change of medium and start antibiotic selection. The histograms show cell secretion assay (CSA) as percentage (white bar) and secretion mean intensity (SMI) (grey bar) of total producing cells (FIG. 6A) or of the high-, medium- and low-producing subpopulations (FIG. 6B) performed on stable trastuzumab-expressing cells.

Setting [9] is: after 10 days of antibiotic selection, NU7441 0.4 mM overnight, AS_NU and G1_NU vs AS and G1.

For `C[C@@]1(CO)[C@H](O)CC[C@@]2(C)[C@H]1CC[C@H]1C[C@@H]3C[C@@]12CC[C@]3(O)CO` [APH, aphidicolin], in the data set on SURE CHO-M cell line [1], the “cell cycle phase at which cells are arrested” value (“cell cycle phase” for short) is “S phase”.
For `C[S+](C)[O-]` [DMSO, dimethyl sulfoxide], the “high-producing subpopulation (% HP) of stable IgG-producing cells” value in the data set on SURE CHO-M cells [2] (after 10 days of antibiotic selection, G1-synchronized, with or without DNA repair modulators, vs asynchronous controls) was “increase”. The “cell cycle phase” value in the data set on SURE CHO-M cell line [1] was “G1 arrest; also recorded: G1 phase”. Moreover, in the data set with SURE CHO-M cells [3], the “productivity (fold change of PCD vs untreated control cells)” value was “significant increase”.
For the compound `CN(Cc1cnc2nc(N)nc(N)c2n1)c1ccc(C(=O)N[C@@H](CCC(=O)O)C(=O)O)cc1` [MTX, methotrexate], the “cytotoxic effect (cells failed to pass the antibiotic selection)” value in the data set on SURE CHO-M cells [4] was “lethal cytotoxic effect”. In the data set on SURE CHO-M cell line [5], the “mean intensity of GFP-expressing cells” value was “higher” and the “percentage of GFP-expressing cells” value was “higher”. Moreover, the “cell cycle phase” value in the data set on SURE CHO-M cell line [1] was “G1/S phase”. Also, in the data set on SURE CHO-M cell line [6], the “% of Trastuzumab-expressing cells” value is given as “higher” and the “mean intensity of Trastuzumab-expressing cells” value is “higher”.
As for `COC(=O)Nc1nc2ccc(C(=O)c3cccs3)cc2[nH]1` [NOCO, nocodazole], the “cytotoxic effect (cells failed to pass the antibiotic selection)” value in the data set on SURE CHO-M cells [4] is on record as “lethal cytotoxic effect”. Moreover, in the data set with SURE CHO-M cell line [5], the “mean intensity of GFP-expressing cells” value is recorded as “higher” and the “percentage of GFP-expressing cells” value is “higher”. Also, in the data set on SURE CHO-M cell line [6], the “% of Trastuzumab-expressing cells” value was “higher” and the “mean intensity of Trastuzumab-expressing cells” value was “higher”.
`O=c1cc(N2CCOCC2)oc2c(-c3cccc4c3sc3ccccc34)cccc12` [Nu7441]: the “productivity per cell per day (PCD)” value in the data set on SURE CHO-M cells [7] (Trastuzumab) was “clear increased”; in the data set on SURE CHO-M cells [7] (adalimumab), “less evident”. Moreover, the “productivity (antibody product titer)” value in the data set on SURE CHO-M cells [7] (both antibody molecules (Trastuzumab, Adalimumab)) was “increase”. For the same compound, the “high- and medium-producing cells subpopulations” value with SURE CHO-M cells [8] (G1 phase synchronized and Nu7441 treated, after 10 days selection) is given as “significant increase”. The “mean intensity of IgG-expressing cells” value in the data set with SURE CHO-M cells [8] (setting [9]) is “higher”. For the same compound, in the data set on SURE CHO-M cells [8] (setting [9]), the “percentage of IgG-expressing cells” value was “higher”. In the data set with SURE CHO-M cells [8] (combination with G1 phase synchronization (G1_NU compared to AS)), the “proportion of IgG-producing cells” value is on record as “best”. The “proportion of high-expressing cells” value with SURE CHO-M cells [2] is “higher”.
As for `O=C(c1cc(Cc2n[nH]c(=O)c3ccccc23)ccc1F)N1CCN(C(=O)C2CC2)CC1` [Olaparib], the “proportion of high-expressing cells” value in the data set with SURE CHO-M cells [2] is listed as “higher”.
On to `O=C1C(Cl)=C(N2CCOCC2)C(=O)N1c1ccc(Cl)c(Cl)c1` [RI-1], for which the “proportion of high-expressing cells” value in the data set with SURE CHO-M cells [2] is recorded as “higher”.

Values taken from patent US20200109421A1, “METHODS FOR INTEGRATION OF TRANSGENE DNA” (Selexis S.A., priority 2018, published 2020).
